Reference: article PMC10986179, “PCC0208057 as a small molecule inhibitor of TRPC6 in the treatment of prostate cancer” (Frontiers in Pharmacology, 2024)

Target: T1, TRPC6 (transient receptor potential canonical 6) (Homo sapiens, UniProt Q9Y210)
T1 sequence (Q9Y210 1-931): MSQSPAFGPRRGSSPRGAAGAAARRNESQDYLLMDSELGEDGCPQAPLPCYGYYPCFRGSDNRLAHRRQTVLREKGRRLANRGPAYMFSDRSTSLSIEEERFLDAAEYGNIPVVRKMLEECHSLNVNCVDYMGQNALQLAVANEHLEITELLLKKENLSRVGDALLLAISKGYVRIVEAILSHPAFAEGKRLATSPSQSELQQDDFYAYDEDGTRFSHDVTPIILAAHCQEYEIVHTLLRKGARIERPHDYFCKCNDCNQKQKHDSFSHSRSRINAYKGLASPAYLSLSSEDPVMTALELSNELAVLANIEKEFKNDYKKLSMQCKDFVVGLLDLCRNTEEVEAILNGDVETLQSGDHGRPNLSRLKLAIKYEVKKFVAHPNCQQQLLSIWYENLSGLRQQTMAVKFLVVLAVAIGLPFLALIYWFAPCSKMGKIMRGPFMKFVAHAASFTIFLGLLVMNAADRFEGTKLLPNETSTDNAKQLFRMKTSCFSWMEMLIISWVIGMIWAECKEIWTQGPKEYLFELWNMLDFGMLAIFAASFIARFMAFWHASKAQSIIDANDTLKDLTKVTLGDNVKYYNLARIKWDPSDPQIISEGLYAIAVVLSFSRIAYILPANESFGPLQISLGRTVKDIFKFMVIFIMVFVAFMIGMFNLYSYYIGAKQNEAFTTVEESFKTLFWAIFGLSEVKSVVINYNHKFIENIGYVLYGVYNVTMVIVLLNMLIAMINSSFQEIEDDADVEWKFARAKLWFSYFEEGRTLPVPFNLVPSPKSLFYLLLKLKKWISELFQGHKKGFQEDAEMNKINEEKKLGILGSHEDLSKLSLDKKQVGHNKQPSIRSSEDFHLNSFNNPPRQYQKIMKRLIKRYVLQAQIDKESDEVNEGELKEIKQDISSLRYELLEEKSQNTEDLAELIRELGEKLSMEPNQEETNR
Assay: Fluo-4 Ca2+ assay in TRPC6-HEK293 cells; also electrophysiology of GSK1702934A-evoked TRPC6 currents
Type: cell-based

Question: How did the IC50 turn out when `COc1cccc2sc(N(CCN3CCCC3)C(=O)c3ccc4c(c3)OCO4)nc12` [PCC0208057] was run?
Answer: The IC50 was 2440 nM.
